Like-named read-outs stand apart in the source and are kept apart here. Positions of bridges follow the written chain, without caps; N, C: chain ends. Non-standard residues stand in square brackets, D forms with d. Residues, ends and D or L forms follow the SMILES beside them. ξ: configuration not given here. Pro(4S-NH2) = N[C@@H]1CN[C@H](C(=O)O)C1; ξPro(4-NH2) = NC1CNC(C(=O)O)C1

In one test the target is T1, ASGPR (Homo sapiens, UniProt P07306).
T1 construct: biotin (biotinylated)
T1 sequence (P07306 1-291): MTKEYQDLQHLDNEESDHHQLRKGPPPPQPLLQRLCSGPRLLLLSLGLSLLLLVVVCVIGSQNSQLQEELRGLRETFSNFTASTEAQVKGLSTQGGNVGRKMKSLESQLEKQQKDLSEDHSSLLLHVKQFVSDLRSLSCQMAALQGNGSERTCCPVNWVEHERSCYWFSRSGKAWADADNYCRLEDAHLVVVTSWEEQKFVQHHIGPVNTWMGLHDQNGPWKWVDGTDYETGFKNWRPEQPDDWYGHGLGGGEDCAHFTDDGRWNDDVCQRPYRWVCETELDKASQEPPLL
The experiment in a line: ASGPR SPR binding. To be noted: second table, read-out: ASGPR KD.

The next test has as its target IgG. The experiment in a line: IgG SPR binding. To be noted: second table, read-out: IgG KD.
Test [1] concerns the target T2, ASGPR receptor on HepG2 cells (ternary complex with AF488-labeled antibody) (Homo sapiens, UniProt P07306).
T2 construct: host or cells: HepG2
T2 sequence (P07306 1-291): T1 sequence (P07306 1-291)
T2 sequence (P07307 1-311 partner): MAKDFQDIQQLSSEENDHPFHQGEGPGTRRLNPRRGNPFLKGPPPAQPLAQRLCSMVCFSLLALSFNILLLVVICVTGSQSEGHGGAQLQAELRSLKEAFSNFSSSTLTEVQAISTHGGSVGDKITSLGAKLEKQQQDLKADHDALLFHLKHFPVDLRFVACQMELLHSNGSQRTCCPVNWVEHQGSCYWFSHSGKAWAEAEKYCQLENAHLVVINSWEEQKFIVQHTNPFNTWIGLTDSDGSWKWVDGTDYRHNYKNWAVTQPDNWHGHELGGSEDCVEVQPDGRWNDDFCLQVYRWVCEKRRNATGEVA
Briefly: Ternary complex formation assay (flow cytometry, cell-associated AF488 fluorescence). The class given is cell-based. As for the experimental part:
Human IgG (Sigma-Aldrich, 14506) was covalently labeled with Alexa Fluor 488 using the Alexa Fluor™ 488 Protein Labeling Kit (Thermo Fisher, A10235) following the manufacturer's instructions. HepG2 cells (ATCC, HB-8065) were cultured to about 70% confluence and harvested by trypsinization. Single cell suspensions of HepG2 cells were plated in 96 well plates at 1×10^5 cells/well in cell culture media (DMEM supplemented with 10% FBS) and placed at 4° C. For studies using human IgG, cells were incubated with 100 nM AF488-labeled anti-human IgG and serial dilutions of IgG-based degrader for 1 hour at 4° C. For studies using DNP, cells were incubated with 100 nM AF488-labeled polyclonal rabbit anti-dinitrophenyl (DNP) antibodies (ThermoFisher) and serial dilutions of DNP-based degrader for 1 hour at 4° C. After washing once with ice-cold PBS containing 0.1% BSA and 0.1% sodium azide, cells were resuspended in 150 uL PBS+0.1% BSA and cell-associated AF488 fluorescence was measured by flow cytometry using the iQue® Screener PLUS Flow Cytometer (IntelliCyt). […]
In general terms: A flow cytometer gives signals particle by particle.

The mark [2] stands for this setting: read-out: TCF EC50, 100 nM AF488-labeled antibody, 1 hour at 4° C., the 25th table, class symbols.

Broadly, the Kd is the free concentration of one partner at which half of the binding sites on the other are occupied at equilibrium, for simple one-to-one binding. The EC50 is the concentration giving half of the maximal effect. On to `CC(C)CC1NC(=O)C(Cc2cnc[nH]2)NC(=O)C(Cc2c[nH]c3ccccc23)NC(=O)C(C)NC(=O)C2CSSCC(NC(=O)C(Cc3c[nH]c4ccccc34)NC(=O)C(C(C)C)NC(=O)C(CC(C)C)NC(=O)C(CCC(=O)O)NC(=O)CNC1=O)C(=O)NC(C(C)O)C(=O)N1CCCC1C(=O)N1CC(NC(=O)COc3ccc(CC(=O)NCC4OCC(Nc5cncc(C(F)(F)F)n5)C(O)C4O)cc3)CC1C(=O)NC(CC(=O)O)C(=O)N2` (stereo not drawn) [compound 37], for which the equilibrium dissociation constant (Kd) on ASGPR and on IgG was under 100 nM throughout. Moreover, the EC50 in test [1] (setting [2]) is under 100 nM.

For the compound `CNC(=O)CCC1NC(=O)CNC(=O)C(CC(C)C)NC(=O)C(Cc2cnc[nH]2)NC(=O)C(Cc2c[nH]c3ccccc23)NC(=O)C(C)NC(=O)C2CSSCC(NC(=O)C(Cc3c[nH]c4ccccc34)NC(=O)C(C(C)C)NC(=O)C(CC(C)C)NC1=O)C(=O)NC(C(C)O)C(=O)N1CCCC1C(=O)N1CC(N)CC1C(=O)NC(CC(=O)O)C(=O)N2` (stereo not drawn) [compound 64], on ASGPR, the Kd was under 100 nM.

For `CC(C)C[C@@H]1NC(=O)[C@H](Cc2cnc[nH]2)NC(=O)[C@H](Cc2c[nH]c3ccccc23)NC(=O)[C@H](C)NC(=O)[C@@H]2CSSC[C@H](NC(=O)[C@H](Cc3c[nH]c4ccccc34)NC(=O)[C@H](C(C)C)NC(=O)[C@H](CC(C)C)NC(=O)[C@H](CCC(=O)N(C)C)NC(=O)CNC1=O)C(=O)N[C@@H]([C@@H](C)O)C(=O)N1CCC[C@@H]1C(=O)N1C[C@@H](N)C[C@H]1C(=O)N[C@@H](CC(=O)O)C(=O)N2` [compound 65], the Kd on IgG was under 100 nM.

Consider `CC(C)CC1NC(=O)C(Cc2cnc[nH]2)NC(=O)C(Cc2c[nH]c3ccccc23)NC(=O)C(C)NC(=O)C2CSSCC(NC(=O)C(Cc3c[nH]c4ccccc34)NC(=O)C(C(C)C)NC(=O)C(CC(C)C)NC(=O)C(CCC(=O)O)NC(=O)CNC1=O)C(=O)NC(C(C)O)C(=O)N1CCCC1C(=O)N1CC(N)CC1C(=O)NC(CC(=O)O)C(=O)N2` (stereo not drawn) [compound 66], for which, at IgG, the Kd was under 100 nM.

As to `CC(C)C[C@@H]1NC(=O)[C@H](C)NC(=O)CNC(=O)[C@H](CC(C)C)NC(=O)[C@H](Cc2cnc[nH]2)NC(=O)[C@H](Cc2c[nH]c3ccccc23)NC(=O)[C@H](C)NC(=O)[C@@H]2CSSC[C@H](NC(=O)[C@H](Cc3c[nH]c4ccccc34)NC(=O)[C@H](C(C)C)NC1=O)C(=O)N[C@@H]([C@@H](C)O)C(=O)N1CCC[C@@H]1C(=O)N1C[C@@H](N)C[C@H]1C(=O)N[C@@H](C)C(=O)N2` [compound 67] (cyclo(ACAWHLGALVWCT[dP][Pro(4S-NH2)]); disulfide 2-12), the dissociation constant Kd on IgG is under 100 nM.

On to `CC(C)C[C@@H]1NC(=O)[C@H](Cc2cnc[nH]2)NC(=O)[C@H](Cc2c[nH]c3ccccc23)NC(=O)[C@H](C)NC(=O)[C@@H]2CSSC[C@H](NC(=O)[C@H](Cc3c[nH]c4ccccc34)NC(=O)[C@H](C(C)C)NC(=O)[C@H](CC(C)C)NC(=O)[C@H](CCC(=O)N(C)C)NC(=O)CNC1=O)C(=O)N[C@@H]([C@@H](C)O)C(=O)N1CCC[C@@H]1C(=O)N1C[C@@H](N)C[C@H]1C(=O)N[C@@H](C)C(=O)N2` [compound 68], for which the Kd on IgG was under 100 nM.

Turning to `CC(C)CC1NC(=O)C(Cc2cnc[nH]2)NC(=O)C(Cc2c[nH]c3ccccc23)NC(=O)C(C)NC(=O)C2CSSCC(NC(=O)C(Cc3c[nH]c4ccccc34)NC(=O)C(C(C)C)NC(=O)C(CC(C)C)NC(=O)C(CCC(=O)N(C)C)NC(=O)CNC1=O)C(=O)NC(C(C)O)C(=O)N1CCCC1C(=O)N1CC(N)CC1C(=O)NC(CC(N)=O)C(=O)N2` (stereo not drawn) [compound 69] (cyclo(GE(NMe2)LVWCTP[ξPro(4-NH2)]NCAWHL); disulfide 6-11; configuration not given here), on IgG, the Kd is under 100 nM.

For `CC(C)C[C@@H]1NC(=O)[C@H](C)NC(=O)CNC(=O)[C@H](CC(C)C)NC(=O)[C@H](Cc2cnc[nH]2)NC(=O)[C@H](Cc2c[nH]c3ccccc23)NC(=O)[C@H](C)NC(=O)[C@@H]2CSSC[C@H](NC(=O)[C@H](Cc3c[nH]c4ccccc34)NC(=O)[C@H](C(C)C)NC1=O)C(=O)N[C@@H]([C@@H](C)O)C(=O)N1CCC[C@@H]1C(=O)N1C[C@@H](N)C[C@H]1C(=O)N[C@@H](CC(N)=O)C(=O)N2` [compound 70] (cyclo(ALVWCT[dP][Pro(4S-NH2)]NCAWHLG); disulfide 5-10), the equilibrium dissociation constant (Kd) on IgG was under 100 nM.

In the case of `C#CCCCC(=O)NC1CC2C(=O)NC(CC(=O)O)C(=O)NC3CSSCC(NC(=O)C(Cc4c[nH]c5ccccc45)NC(=O)C(C(C)C)NC(=O)C(CC(C)C)NC(=O)C(CCC(=O)O)NC(=O)CNC(=O)C(CC(C)C)NC(=O)C(Cc4cnc[nH]4)NC(=O)C(Cc4c[nH]c5ccccc45)NC(=O)C(C)NC3=O)C(=O)NC(C(C)O)C(=O)N3CCCC3C(=O)N2C1` (stereo not drawn) [compound 75], at IgG, the Kd is under 100 nM.

`CC(C)CC1NC(=O)C(Cc2cnc[nH]2)NC(=O)C(Cc2c[nH]c3ccccc23)NC(=O)C(C)NC(=O)C2CSSCC(NC(=O)C(Cc3c[nH]c4ccccc34)NC(=O)C(C(C)C)NC(=O)C(CC(C)C)NC(=O)C(CCC(=O)O)NC(=O)CNC1=O)C(=O)NC(C(C)O)C(=O)N1CCCC1C(=O)N1CC(NC(=O)CCCc3cn(CC(=O)NC(COCCC(=O)NCCOCCOCCOCCOCC4OCC(Nc5cncc(C(F)(F)F)n5)C(O)C4O)COCCC(=O)NCCOCCOCCOCCOCC4OCC(Nc5cncc(C(F)(F)F)n5)C(O)C4O)nn3)CC1C(=O)NC(CC(=O)O)C(=O)N2` (stereo not drawn) [compound 77]: the Kd on IgG is under 100 nM. In addition, the 50% effective concentration (EC50) in test [1] (100 nM AF488-labeled antibody, 1 hour at 4° C., the 25th table, class symbols, read-out: TCF EC50) is under 100 nM.

`COC1OC(Cn2cc(CCCC(=O)NC3CC4C(=O)NC(CC(=O)O)C(=O)NC5CSSCC(NC(=O)C(Cc6c[nH]c7ccccc67)NC(=O)C(C(C)C)NC(=O)C(CC(C)C)NC(=O)C(CCC(=O)O)NC(=O)CNC(=O)C(CC(C)C)NC(=O)C(Cc6cnc[nH]6)NC(=O)C(Cc6c[nH]c7ccccc67)NC(=O)C(C)NC5=O)C(=O)NC(C(C)O)C(=O)N5CCCC5C(=O)N4C3)nn2)C(O)C(O)C1NC(C)=O` (stereo not drawn) [compound 79]: the Kd was over 1000 nM on ASGPR and under 100 nM on IgG.

As for `CC(C)C[C@@H]1NC(=O)[C@H](Cc2cnc[nH]2)NC(=O)[C@H](Cc2c[nH]c3ccccc23)NC(=O)[C@H](C)NC(=O)[C@@H]2CSSC[C@H](NC(=O)[C@H](Cc3c[nH]c4ccccc34)NC(=O)[C@H](C(C)C)NC(=O)[C@H](CC(C)C)NC(=O)[C@H](CCC(=O)O)NC(=O)CNC1=O)C(=O)N[C@@H]([C@@H](C)O)C(=O)N1CCC[C@@H]1C(=O)N1C[C@H](N)C[C@H]1C(=O)N[C@@H](CC(=O)O)C(=O)N2` [compound 95], the Kd on IgG was under 100 nM.

Take `CC(C)CC1NC(=O)C(Cc2cnc[nH]2)NC(=O)C(Cc2c[nH]c3ccccc23)NC(=O)C(C)NC(=O)C2CSSCC(NC(=O)C(Cc3c[nH]c4ccccc34)NC(=O)C(C(C)C)NC(=O)C(CC(C)C)NC(=O)C(CCC(=O)O)NC(=O)CNC1=O)C(=O)NC(C(C)O)C(=O)N1CCCC1C(=O)N1CC(NC(=O)c3ccc(N4CCC(CN5CCN(CC6OCC(Nc7cncc(C(F)(F)F)n7)C(O)C6O)CC5)CC4)cc3)CC1C(=O)NC(CC(=O)O)C(=O)N2` (stereo not drawn) [compound 98]: the Kd at IgG is under 100 nM. In test [1] (setting [2]), the EC50 was under 100 nM.

As for `CC(C)C[C@@H]1NC(=O)[C@H](Cc2cnc[nH]2)NC(=O)[C@H](Cc2c[nH]c3ccccc23)NC(=O)[C@H](C)NC(=O)[C@@H]2CC/C=C/C[C@H](NC(=O)[C@H](Cc3c[nH]c4ccccc34)NC(=O)[C@H](C(C)C)NC(=O)[C@H](CC(C)C)NC(=O)[C@H](CCC(=O)O)NC(=O)CNC1=O)C(=O)N[C@@H]([C@@H](C)O)C(=O)N1CCC[C@@H]1C(=O)N1CCC[C@H]1C(=O)N[C@@H](CC(=O)O)C(=O)N2` [compound 99], the Kd on IgG was under 100 nM.

On to `CC(C)CC1NC(=O)C(Cc2cnc[nH]2)NC(=O)C(Cc2c[nH]c3ccccc23)NC(=O)C(C)NC(=O)C2CSSCC(NC(=O)C(Cc3c[nH]c4ccccc34)NC(=O)C(C(C)C)NC(=O)C(CC(C)C)NC(=O)C(CCC(=O)O)NC(=O)CNC1=O)C(=O)NC(C(C)O)C(=O)N1CCCC1C(=O)N1CC(NC(=O)CCCc3cn(CC45COC(O4)C(NC(=O)C(F)(F)F)C(O)C5O)nn3)CC1C(=O)NC(CC(=O)O)C(=O)N2` (stereo not drawn) [compound 104], for which the dissociation constant (Kd) on IgG was under 100 nM. The EC50 in test [1] (read-out: TCF EC50, 100 nM AF488-labeled antibody, 1 hour at 4° C., the 25th table, numeric bounds, nM from footnote) is over 10000 nM.

(Values after patent publication US20260083851A1 (AVILAR THERAPEUTICS, INC., priority 2022, published 2026).)
